Measurements: patent publication US9399638B2, “Substituted pyridine compounds as CRAC modulators” (LUPIN LIMITED, priority 2012, dated 2016)

System: IL-2 secretion by Jurkat T cells
Assay: Inhibition of IL-2 secretion
Assay type: cell-based
Conditions: Homo sapiens; Jurkat T cells stimulated with PHA, 20 to 24 hours, IL-2 by ELISA
Method: The CRAC channel modulatory activity of the compounds were thus evaluated by measuring the secretion of IL-2 by antigen stimulated T-cells in vitro. Alternatively, such activity can also be evaluated by assay methods known to one skilled in the art.
Inhibition of IL-2 secretion: Jurkat T cells were seeded at a density of 0.5 to 1 million cells per well in RPMI medium. Test compounds from this invention were added to the cells at different concentrations. This was followed by the addition of PHA, a T cell mitogen after 10 minutes. The cells were then incubated for 20 to 24 hours in a CO2 incubator at 37° C. After incubation with the compounds, cells were centrifuged, the supernatant was collected and processed for ELISA to quantitate the amount of IL-2 secreted. A commercial ELISA kit (R&D Systems, Inc. Minneapolis, Minn., USA) was used to estimate the IL-2 concentrations. Amount of IL-2 secreted by cells stimulated with PHA was considered as a 100% maximal signal and the decrease in amount of IL-2 secreted by cells treated with the test compounds was expressed as percent inhibition of the maximal signal. The dose response data was analyzed using 4-parametric sigmoidal dose response (variable slope) curve—fit.

Structure (SMILES) | IC50
Cc1cc(NC(=O)c2c(F)cccc2F)ccc1-c1cc(-c2nn(C)c(=O)o2)cnc1C1CC1 [Example 32, N-(4-(2-Cyclopropyl-5-(4-methyl-5-oxo-4,5-dihydro-1,3,4-oxadiazol-2-yl)pyridin-3-yl)-3-methylphenyl)-2,6-difluorobenzamide] | < 100 nM
Cn1nc(-c2cnc(C3CC3)c(-c3cnc(NC(=O)c4c(F)cccc4F)cn3)c2)oc1=O [Example 33, N-(5-(2-Cyclopropyl-5-(4-methyl-5-oxo-4,5-dihydro-1,3,4-oxadiazol-2-yl)pyridin-3-yl)pyrazin-2-yl)-2,6-difluorobenzamide] | < 100 nM
Cn1nc(-c2cnc(C3CC3)c(-c3cnc(NC(=O)c4c(F)cccc4Cl)cn3)c2)oc1=O [Example 34, 2-Chloro-N-(5-(2-cyclopropyl-5-(4-methyl-5-oxo-4,5-dihydro-1,3,4-oxadiazol-2-yl)pyridin-3-yl)pyrazin-2-yl)-6-fluorobenzamide] | 100 to 1000 nM
Cn1nc(-c2cnc(C3CC3)c(-c3ccc(NC(=O)c4c(F)cccc4F)cn3)c2)oc1=O [Example 35, N-(2′-Cyclopropyl-5′-(4-methyl-5-oxo-4,5-dihydro-1,3,4-oxadiazol-2-yl)-[2,3′-bipyridin]-5-yl)-2,6-difluorobenzamide] | < 100 nM
Cn1nc(-c2cnc(C3CC3)c(-c3ccc(NC(=O)c4c(F)cccc4F)nc3)c2)oc1=O [Example 36, N-(2′-Cyclopropyl-5′-(4-methyl-5-oxo-4,5-dihydro-1,3,4-oxadiazol-2-yl)-[3,3′-bipyridin]-6-yl)-2,6-difluorobenzamide] | < 100 nM
Cn1nc(-c2cnc(C(F)(F)F)c(-c3cnc(NC(=O)c4c(F)cccc4F)cn3)c2)oc1=O [Example 37, 2,6-Difluoro-N-(5-(5-(4-methyl-5-oxo-4,5-dihydro-1,3,4-oxadiazol-2-yl)-2-(trifluoromethyl)pyridine-3-yl)pyrazin-2-yl)benzamide] | < 100 nM
Cn1nc(-c2cnc(C(F)(F)F)c(-c3ccc(NC(=O)c4c(F)cccc4F)nc3)c2)oc1=O [Example 38, 2,6-Difluoro-N-(5′-(4-methyl-5-oxo-4,5-dihydro-1,3,4-oxadiazol-2-yl)-2′-(trifluoromethyl)-[3,3′-bipyridin]-6-yl)benzamide] | 100 to 1000 nM
Cn1nc(-c2cnc(C(F)(F)F)c(-c3ccc(NC(=O)c4c(F)cccc4F)cn3)c2)oc1=O [Example 39, 2,6-Difluoro-N-(5′-(4-methyl-5-oxo-4,5-dihydro-1,3,4-oxadiazol-2-yl)-2′-(trifluoromethyl)-[2,3′-bipyridin]-5-yl)benzamide] | 100 to 1000 nM
CCc1ncc(-c2nn(C)c(=O)o2)cc1-c1ccc(NCc2c(F)cccc2F)cn1 [Example 40, 5-(5-((2,6-Difluorobenzyl)amino)-2′-ethyl-[2,3′-bipyridin]-5′-yl)-3-methyl-1,3,4-oxadiazol-2(3H)-one] | 100 to 1000 nM
CCc1ncc(-c2nn(C)c(=O)o2)cc1-c1ccc(NCc2c(F)cccc2F)nc1 [Example 41A, 5-(6′-((2,6-Difluorobenzyl)amino)-2-ethyl-[3,3′-bipyridin]-5-yl)-3-methyl-1,3,4-oxadiazol-2(3H)-one] | > 1000 nM
CCc1ncc(-c2nn(C)c(=O)o2)cc1-c1cc(C)c(NC(=O)c2c(F)cccc2F)cn1 [Example 41B, N-(2′-Ethyl-4-methyl-5′-(4-methyl-5-oxo-4,5-dihydro-1,3,4-oxadiazol-2-yl)-[2,3′-bipyridin]-5-yl)-2,6-difluorobenzamide] | 100 to 1000 nM
CCc1ncc(-c2nn(C)c(=O)o2)cc1-c1cnc(NC(=O)c2c(F)cccc2F)cc1C [Example 41] | < 100 nM
Cn1nc(-c2cnc(C3CC3)c(-c3ccc(C(=O)Nc4c(F)cccc4Cl)s3)c2)oc1=O [Example 42, N-(2-Chloro-6-fluorophenyl)-5-(2-cyclopropyl-5-(4-methyl-5-oxo-4,5-dihydro-1,3,4-oxadiazol-2-yl)pyridin-3-yl)thiophene-2-carboxamide] | < 100 nM
Cc1cnccc1NC(=O)c1ccc(-c2cc(-c3nn(C)c(=O)o3)cnc2C2CC2)s1 [Example 43, 5-(2-Cyclopropyl-5-(4-methyl-5-oxo-4,5-dihydro-1,3,4-oxadiazol-2-yl)pyridin-3-yl)-N-(3-methylpyridin-4-yl)thiophene-2-carboxamide] | < 100 nM
CCc1ncc(-c2nn(C)c(=O)o2)cc1-c1ccc(C(=O)Nc2c(F)cccc2F)o1 [Example 44, N-(2,6-Difluorophenyl)-5-(2-ethyl-5-(4-methyl-5-oxo-4,5-dihydro-1,3,4-oxadiazol-2-yl)pyridin-3-yl)furan-2-carboxamide] | > 1000 nM
Cn1nc(-c2cnc(C3CC3)c(-c3ccc(C(=O)Nc4c(F)cccc4F)o3)c2)oc1=O [Example 45, 5-(2-Cyclopropyl-5-(4-methyl-5-oxo-4,5-dihydro-1,3,4-oxadiazol-2-yl)pyridin-3-yl)-N-(2,6-difluorophenyl)furan-2-carboxamide] | > 1000 nM

Structure (SMILES) | IC50
CCc1ncc(-c2nn(C)c(=O)o2)cc1-c1ccc(NC(=O)c2c(F)cncc2F)cc1 [Example 46, N-(4-(2-Ethyl-5-(4-methyl-5-oxo-4,5-dihydro-1,3,4-oxadiazol-2-yl)pyridin-3-yl)phenyl)-3,5-difluoroisonicotinamide] | 100 to 1000 nM
CCc1ncc(-c2nn(C)c(=O)o2)cc1-c1ccc(NC(=O)c2c(C)cccc2F)cc1 [Example 47, N-(4-(2-Ethyl-5-(4-methyl-5-oxo-4,5-dihydro-1,3,4-oxadiazol-2-yl)pyridin-3-yl)phenyl)-2-fluoro-6-methylbenzamide] | 100 to 1000 nM
CCc1ncc(-c2nn(C)c(=O)o2)cc1-c1ccc(NC(=O)c2c(F)cccc2Cl)cc1 [Example 48, 2-Chloro-N-(4-(2-ethyl-5-(4-methyl-5-oxo-4,5-dihydro-1,3,4-oxadiazol-2-yl)pyridin-3-yl)phenyl)-6-fluorobenzamide] | 100 to 1000 nM
CCc1ncc(-c2nn(C)c(=O)o2)cc1-c1ccc(NC(=O)c2snnc2C)cc1 [Example 49, N-(4-(2-Ethyl-5-(4-methyl-5-oxo-4,5-dihydro-1,3,4-oxadiazol-2-yl)pyridin-3-yl)phenyl)-4-methyl-1,2,3-thiadiazole-5-carboxamide] | 100 to 1000 nM
CCc1ncc(-c2nn(C)c(=O)o2)cc1-c1ccc(NC(=O)c2c(C)noc2C)cc1 [Example 50, N-(4-(2-Ethyl-5-(4-methyl-5-oxo-4,5-dihydro-1,3,4-oxadiazol-2-yl)pyridin-3-yl)phenyl)-3,5-dimethylisoxazole-4-carboxamide] | > 1000 nM
CCc1ncc(-c2nn(C)c(=O)o2)cc1-c1ccc(NC(=O)c2ccncc2C)cc1 [Example 51, N-(4-(2-Ethyl-5-(4-methyl-5-oxo-4,5-dihydro-1,3,4-oxadiazol-2-yl)pyridin-3-yl)phenyl)-3-methylisonicotinamide] | > 1000 nM
CCc1ncc(-c2nn(C)c(=O)o2)cc1-c1cnc(NC(=O)c2c(F)cccc2F)cn1 [Example 53, 2,6-Difluoro-N-(5-(2-ethyl-5-(4-methyl-5-oxo-4,5-dihydro-1,3,4-oxadiazol-2-yl)pyridin-3-yl)pyrazin-2-yl)benzamide] | 100 to 1000 nM
CCc1ncc(-c2nn(C)c(=O)o2)cc1-c1cnc(NC(=O)c2c(F)cccc2Cl)cn1 [Example 54, 2-Chloro-N-(5-(2-ethyl-5-(4-methyl-5-oxo-4,5-dihydro-1,3,4-oxadiazol-2-yl)pyridin-3-yl)pyrazin-2-yl)-6-fluorobenzamide] | < 100 nM
Cc1ncc(-c2nn(C)c(=O)o2)cc1-c1cnc(NC(=O)c2c(F)cccc2F)cn1 [Example 55, 2,6-Difluoro-N-(5-(2-methyl-5-(4-methyl-5-oxo-4,5-dihydro-1,3,4-oxadiazol-2-yl)pyridin-3-yl)pyrazin-2-yl)benzamide] | 100 to 1000 nM
CNc1ncc(-c2nn(C)c(=O)o2)cc1-c1cnc(NC(=O)c2c(F)cccc2F)cn1 [Example 56, 2,6-Difluoro-N-(5-(5-(4-methyl-5-oxo-4,5-dihydro-1,3,4-oxadiazol-2-yl)-2-(methylamino)pyridin-3-yl)pyrazin-2-yl)benzamide] | > 1000 nM
CCc1ncc(-c2nn(C)c(=O)o2)cc1-c1ccc(C(=O)Nc2c(F)cccc2F)s1 [Example 57, N-(2,6-Difluorophenyl)-5-(2-ethyl-5-(4-methyl-5-oxo-4,5-dihydro-1,3,4-oxadiazol-2-yl)pyridin-3-yl)thiophene-2-carboxamide] | < 100 nM
Cc1ncc(-c2nn(C)c(=O)o2)cc1-c1ccc(C(=O)Nc2c(F)cccc2F)s1 [Example 58, N-(2,6-Difluorophenyl)-5-(2-methyl-5-(4-methyl-5-oxo-4,5-dihydro-1,3,4-oxadiazol-2-yl)pyridin-3-yl)thiophene-2-carboxamide] | 100 to 1000 nM
Cn1nc(-c2cnc(C3CC3)c(-c3ccc(C(=O)Nc4c(F)cccc4F)s3)c2)oc1=O [Example 59, 5-(2-Cyclopropyl-5-(4-methyl-5-oxo-4,5-dihydro-1,3,4-oxadiazol-2-yl)pyridin-3-yl)-N-(2,6-difluorophenyl)thiophene-2-carboxamide] | < 100 nM
Cn1nc(-c2cnc(C(F)(F)F)c(-c3ccc(C(=O)Nc4c(F)cccc4F)s3)c2)oc1=O [Example 60, N-(2,6-Difluorophenyl)-5-(5-(4-methyl-5-oxo-4,5-dihydro-1,3,4-oxadiazol-2-yl)-2-(trifluoromethyl)pyridin-3-yl)thiophene-2-carboxamide] | < 100 nM
CNc1ncc(-c2nn(C)c(=O)o2)cc1-c1ccc(C(=O)Nc2c(F)cccc2F)s1 [Example 61, N-(2,6-Difluorophenyl)-5-(5-(4-methyl-5-oxo-4,5-dihydro-1,3,4-oxadiazol-2-yl)-2-(methylamino)pyridin-3-yl)thiophene-2-carboxamide] | < 100 nM
